According to patent US11466044B2 (WAYNE STATE UNIVERSITY, priority 2017, dated 2022):
pIC50: −log10 of the molar value. Values after ≈ are worked out from the molar mass of the structure shown. Read-outs that look alike come from different tables or passages of the source.

Tests used:
[1] = system: P aeruginosa; assay: MIC by broth microdilution, P aeruginosa isolates; type: cell-based, Pseudomonas aeruginosa; conditions: Table 1 (Example 2); for MIC50: Pseudomonas aeruginosa
[2] = system: MRSA; assay: MIC by broth microdilution, MRSA isolates; type: cell-based; conditions: Table 1 (Example 2)
[3] = system: E coli wild type; assay: MIC by broth microdilution, wild type E coli; type: cell-based; conditions: for MIC: Escherichia coli
[4] = system: wild type bacterial ribosomes; assay: in-vitro translation assay, bacterial ribosomes; type: biochemical; conditions: bacterial ribosome, read-out: IC50 Bac
Description: (§1) The antiribosomal activity of these compounds was investigated with cell-free translation assays using both wild type bacterial ribosomes and hybrid ribosomes carrying eukaryotic decoding A sites enabling the prediction of selectivity.

[5] = system: cytosolic ribosome (human chimeric); type: biochemical; conditions: cytosolic, read-out: IC50 Cyt
Description: as §1

[6] = system: mitochondrial ribosome (human chimeric); type: biochemical; conditions: mitochondrial, read-out: IC50 Mit
Description: as §1

[7] = system: M. smegmatis SZ380; assay: MIC by broth microdilution, M. smegmatis
[8] = system: E coli carrying specific resistance determinants; assay: MIC by broth microdilution, E coli carrying specific resistance determinants; type: cell-based; conditions: for MIC APH(3)-VI / MIC APH(3′)-I / MIC APH(3′)-II / MIC APH(3′)-III: Table 3 (Example 1); for MIC: Escherichia coli
[9] = read-out: MIC WT, WT, Table 3 (Example 2)
[10] = ATCC25922, strain AG212 E. coli (ATCC25922), read-out: MIC AG212 E. coli
[11] = clinical isolate AG160 WT, Table 2 (Example 4), read-out: MIC AG160 E. coli WT
[12] = engineered strain pH430 WT, Table 2 (Example 4), read-out: MIC pH430 E. coli WT
[13] = read-out: MIC AG037 E. coli APH(3′)-III

CC1CC(O)C2O[C@H](O[C@@H]3C(N)C[C@@H](N)C(O)[C@H]3O[C@@H]3O[C@H](CO)[C@H](O[C@H]4O[C@@H](CN)[C@@H](O)C(O)C4N)C3O)C(N)[C@@H](O)[C@@H]2O1 (stereo partly drawn) [Compound 109, 4-O-(2′-Amino-4′,8′-anhydro-2′,7′,9′-trideoxy-D-erythro-α-D-gluco-nonapyranosyl)-5-O-[3-O-(2,6-diamino-2,6-dideoxy-β-L-idopyranosyl)-β-D-ribofuranosyl]-2-deoxystreptamine.5AcOH]
MIC50 ([1]; strain AG33, read-out: MIC50 P aeruginosa AG33): > 128 µg/mL | MIC50 ([1]; strain AG86, read-out: MIC50 P aeruginosa AG86): > 128 µg/mL | MIC50 P aeruginosa AG31 ([1]; strain AG31): >128 µg/mL | MIC50 P aeruginosa AG32 ([1]; strain AG32): >128 µg/mL | MIC50 ([2]; Staphylococcus aureus, MRSA, strain AG42, read-out: MIC50 MRSA AG42): 16 to 32 µg/mL (≈ 24.4 to 48.8 µM) | MIC50 MRSA AG38 ([2]; strain AG38): 32 µg/mL (≈ 48.8 µM) | MIC50 MRSA AG39 ([2]; strain AG39): 32 to 64 µg/mL | MIC50 MRSA AG44 ([2]; strain AG44): 32 µg/mL (≈ 48.8 µM) | MIC50 E coli BM13 (AG06) wt ([3]; BM13 (AG06) wt, Table 2A (Example 2)): 16 to 32 µg/mL | MIC WT ([3]; WT, Table 3 (Example 2)): 16 to 32 µg/mL | MIC50 E coli pH430 WT ([3]; pH430 WT, Table 2B (Example 2)): 16-32 μg/ml | MIC50 E coli AG01 ([3]; strain AG01, Table 1 (Example 2)): 128 µg/mL (≈ 195 µM) | MIC50 E coli AG03 ([3]; strain AG03, Table 1 (Example 2)): 64 to 128 µg/mL | MIC50 E coli AG55 ([3]; strain AG55, Table 1 (Example 2)): 64 to 128 µg/mL | pIC50 ([4]; Table 3 (Example 2)): 6.33 | pIC50 ([5]; Table 3 (Example 2)): 3.77 | pIC50 ([6]; Table 3 (Example 2)): 3.71 | MIC SZ380 M. smegmatis ([7]; strain SZ380 Mycobacterium smegmatis): 16 µg/mL (≈ 24.4 µM)

CC(=O)O.NCC1OC(OC2C(CO)OC(OC3C(O)C(N)CC(N)C3OC3OC(CO)C(O)C(O)C3O)C2O)C(N)C(O)C1O (stereo not drawn) [Compound 118, 2′-Deamino-2′-hydroxy-paromomycin acetate salt]
MIC E. coli WT ([3]; WT, Table 5 (Example 3)): 32 µg/mL | MIC M. smegmatis SZ380 WT ([7]; SZ380 WT, Table 5 (Example 3)): >128 µg/mL

NC[C@@H]1O[C@H](O[C@H]2[C@@H](O)[C@H](O[C@@H]3[C@@H](O)[C@H](N)C[C@H](N)[C@H]3O[C@H]3O[C@H](CN)[C@@H](O)C[C@H]3N)O[C@@H]2CO)[C@H](N)[C@@H](O)[C@@H]1O [Compound 140]
MIC WT ([3]; WT, Table 3 (Example 1)): 1 µg/mL (≈ 1.67 µM) | MIC AG160 E. coli WT ([3]; clinical isolate AG160 WT, Table 2 (Example 4)): 1 µg/mL (≈ 1.67 µM) | MIC pH430 E. coli WT ([3]; engineered strain pH430 WT, Table 2 (Example 4)): 1 μg/ml | MIC APH(3)-VI [8]: 1 µg/mL (≈ 1.67 µM) | MIC APH(3′)-I [8]: >32 µg/mL | MIC APH(3′)-II [8]: 1 µg/mL (≈ 1.67 µM) | MIC APH(3′)-III [8]: 32 µg/mL (≈ 53.5 µM) | MIC AG163 E. coli APH(3′)-I ([8]; clinical isolate AG163 APH(3′)-I, Table 2 (Example 4)): 64 µg/mL (≈ 107 µM) | MIC AG166 E. coli APH(3′)-II ([8]; clinical isolate AG166 APH(3′)-II, Table 2 (Example 4)): 1 µg/mL (≈ 1.67 µM) | MIC AG037 E. coli APH(3′)-III ([8]; engineered strain AG037 APH(3′)-III, Table 2 (Example 4)): 32 µg/mL (≈ 53.5 µM) | MIC pH421 E. coli APH(3′)-I ([8]; engineered strain pH421 APH(3′)-I, Table 2 (Example 4)): >32 μg/ml | MIC pH422 E. coli APH(3′)-II ([8]; engineered strain pH422 APH(3′)-II, Table 2 (Example 4)): 1 μg/ml | MIC pH423 E. coli APH(3′)-VI ([8]; engineered strain pH423 APH(3′)-VI, Table 2 (Example 4)): 1 μg/ml | pIC50 ([4]; Table 3 (Example 1)): 7.40 | pIC50 ([5]; Table 3 (Example 1)): 4.18 | pIC50 ([6]; Table 3 (Example 1)): 5.34

NC[C@@H]1O[C@H](O[C@@H]2C(O)[C@H](O[C@@H]3C(O)[C@H](N)CC(N)[C@H]3O[C@H]3OC4C(O)CCCO[C@H]4[C@H](O)C3N)O[C@@H]2CO)C(N)C(O)[C@@H]1O (stereo partly drawn) [DC-196]
MIC [3, 9]: 4 µg/mL (≈ 6.1 µM) | MIC ([8]; read-out: MIC AAC(6′)): 4 µg/mL (≈ 6.1 µM) | MIC ([8]; read-out: MIC ANT(4′)): 2 µg/mL (≈ 3.05 µM) | MIC ([8]; read-out: MIC APH(3′)-II): 16 µg/mL (≈ 24.4 µM) | MIC ([8]; read-out: MIC APH(3′)-VI): 16 µg/mL (≈ 24.4 µM) | pIC50 ([5]; Table 3 (Example 2)): 3.70 | pIC50 ([6]; Table 3 (Example 2)): 6.85

NCC1O[C@H](O[C@@H]2C(O)[C@H](O[C@@H]3C(O)[C@H](N)CC(N)[C@H]3O[C@H]3OC4C(O)CO[C@H]4[C@H](O)C3N)O[C@@H]2CO)C(N)[C@H](O)[C@@H]1O (stereo partly drawn) [DC-204]
MIC [3, 9]: 8 µg/mL (≈ 12.7 µM) | MIC ([8]; read-out: MIC AAC(6′)): 16 µg/mL (≈ 25.5 µM) | MIC ([8]; read-out: MIC ANT(4′)): 4 to 8 µg/mL (≈ 6.37 to 12.7 µM) | MIC ([8]; read-out: MIC APH(3′)-II): 16 to 32 µg/mL (≈ 25.5 to 51 µM) | MIC ([8]; read-out: MIC APH(3′)-VI): 16 µg/mL (≈ 25.5 µM) | pIC50 ([5]; Table 3 (Example 2)): 3.88 | pIC50 ([6]; Table 3 (Example 2)): 6.70

CC[C@@H]1C(CO)O[C@H](O[C@@H]2C(N)C[C@@H](N)C(O)[C@H]2O[C@@H]2O[C@H](CO)[C@H](O[C@H]3OC(CN)[C@@H](O)C(O)C3N)C2O)[C@@H](N)C1O (stereo partly drawn) [Compound 206]
MIC [3, 10]: 8 µg/mL (≈ 12.7 µM)

NCC1OC(OC2C(N)CC(N)C(O)C2OC2OC(CNC=O)C(O)C2O)C(N)C(O)C1O (stereo not drawn) [Compound 130]
MIC ([3]; WT, Table 3 (Example 1), read-out: MIC WT): 4 µg/mL (≈ 8.31 µM) | MIC [3, 11]: 16 µg/mL (≈ 33.2 µM) | MIC [3, 12]: 4 µg/mL (≈ 8.31 µM) | MIC [8, 13]: > 128 µg/mL | MIC ([8]; read-out: MIC AG163 E. coli APH(3′)-I): > 128 µg/mL | MIC ([8]; read-out: MIC AG166 E. coli APH(3′)-II): > 128 µg/mL | MIC ([8]; read-out: MIC APH(3)-VI): > 64 µg/mL | MIC ([8]; read-out: MIC APH(3′)-I): > 64 µg/mL | MIC ([8]; read-out: MIC APH(3′)-II): > 64 µg/mL | MIC ([8]; read-out: MIC APH(3′)-III): > 64 µg/mL | MIC ([8]; read-out: MIC pH421 E. coli APH(3′)-I): > 64 µg/mL | MIC ([8]; read-out: MIC pH422 E. coli APH(3′)-II): > 64 µg/mL | MIC ([8]; read-out: MIC pH423 E. coli APH(3′)-VI): > 64 µg/mL | pIC50 ([4]; Table 3 (Example 1)): 6.62 | pIC50 ([5]; Table 3 (Example 1)): 3.44 | pIC50 ([6]; Table 3 (Example 1)): 3.44

CC(=O)NC[C@H]1O[C@@H](O[C@@H]2C(O)[C@H](N)CC(N)[C@H]2O[C@H]2OC(CN)[C@@H](O)[C@H](O)C2N)C(O)[C@H]1O (stereo partly drawn) [Compound 129]
MIC [3, 11]: 64 µg/mL (≈ 129 µM) | MIC [3, 12]: 32 µg/mL (≈ 64.6 µM) | MIC [8, 13]: > 64 µg/mL

NC[C@H]1O[C@H](O[C@H]2[C@H](O[C@@H]3O[C@H](CO)[C@@H](O)[C@H]3O)[C@@H](O)[C@H](N)C[C@@H]2N)[C@H](N)C[C@@H]1O [Compound 047]
MIC WT ([3]; WT, Table 3 (Example 1)): 2 to 4 µg/mL | MIC APH(3)-VI [8]: 4 µg/mL (≈ 9.12 µM) | MIC APH(3′)-I [8]: >64 µg/mL | MIC APH(3′)-II [8]: 2 to 4 µg/mL | MIC APH(3′)-III [8]: >64 µg/mL | pIC50 ([4]; Table 3 (Example 1)): 7.00 | pIC50 ([5]; Table 3 (Example 1)): 3.53 | pIC50 ([6]; Table 3 (Example 1)): 3.49

NC[C@H]1O[C@H](O[C@H]2[C@H](O[C@@H]3O[C@H](CN)[C@@H](O)[C@H]3O)[C@@H](O)[C@H](N)C[C@@H]2N)[C@H](N)[C@@H](O)[C@@H]1O [Compound 048]
MIC WT ([3]; WT, Table 3 (Example 1)): 2 to 4 µg/mL | MIC APH(3)-VI [8]: 64 µg/mL (≈ 141 µM) | MIC APH(3′)-I [8]: >64 µg/mL | MIC APH(3′)-II [8]: >64 µg/mL | MIC APH(3′)-III [8]: >64 µg/mL | pIC50 ([4]; Table 3 (Example 1)): 7.05 | pIC50 ([6]; Table 3 (Example 1)): 4.12

NCC1O[C@H](O[C@@H]2C(O)[C@H](O[C@@H]3C(O)[C@H](N)CC(N)[C@H]3O[C@H]3OC4C(O)CO[C@H]4[C@H](O)C3N)O[C@@H]2CO)C(N)[C@H](O)[C@@H]1O (stereo partly drawn) [Compound 203]
MIC [3, 10]: 32 µg/mL (≈ 51 µM)

NC[C@@H]1O[C@H](O[C@@H]2C(O)[C@H](O[C@@H]3C(O)[C@H](N)CC(N)[C@H]3O[C@H]3OC4C(O)CCO[C@H]4[C@H](O)C3N)O[C@@H]2CO)C(N)C(O)[C@@H]1O (stereo partly drawn) [Compound 211]
MIC [3, 10]: 32 to 64 µg/mL (≈ 49.9 to 99.7 µM)
